Measurements reported in ChEMBL document CHEMBL1135019, “New generation dopaminergic agents. Part 8: heterocyclic bioisosteres that exploit the 7-OH-2-(aminomethyl)chroman D(2) template” (Bioorg Med Chem Lett, 2002).

Tests used:
D(2) dopamine receptor [1] = target: T1, D(2) dopamine receptor (Rattus norvegicus, UniProt P61169)
Description: Affinity of compound for D2 receptor in rat striatal membrane determined for agonist state (high affinity state, D2 High) [3H]quinpirole as radioligand (in the absence of GTP and sodium)

D(2) dopamine receptor [2] = target: T1, D(2) dopamine receptor; remark: listed apart in the source
Description: Affinity of compound for Dopamine receptor D2 in rat striatal membrane determined for antagonist state (low affinity state, D2 Low) with [3H]spiperone (using ketanserin to exclude 5-HT2 receptor binding) in the presence of GTP and sodium

D(4) dopamine receptor = target: T2, D(4) dopamine receptor (Homo sapiens, UniProt P21917); experiment: biochemical
T2 sequence (P21917 whole entry): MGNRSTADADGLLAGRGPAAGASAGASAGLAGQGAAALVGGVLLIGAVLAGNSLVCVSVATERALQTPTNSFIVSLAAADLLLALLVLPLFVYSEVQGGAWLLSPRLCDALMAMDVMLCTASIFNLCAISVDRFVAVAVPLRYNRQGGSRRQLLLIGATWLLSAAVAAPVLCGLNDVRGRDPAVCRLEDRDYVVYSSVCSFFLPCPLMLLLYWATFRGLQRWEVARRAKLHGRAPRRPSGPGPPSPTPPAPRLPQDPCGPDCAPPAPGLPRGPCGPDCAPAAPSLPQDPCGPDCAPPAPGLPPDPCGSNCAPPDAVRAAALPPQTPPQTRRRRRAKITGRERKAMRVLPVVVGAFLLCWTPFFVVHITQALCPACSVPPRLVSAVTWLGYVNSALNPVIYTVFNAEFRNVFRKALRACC
Description: Affinity for the Human Dopamine receptor D4 was determined using membranes from CHO cells labeled with [3H]spiperone

D(3) dopamine receptor = D(3) dopamine receptor (Homo sapiens, UniProt P35462); experiment: biochemical
D(3) dopamine receptor, sequence (P35462 whole entry): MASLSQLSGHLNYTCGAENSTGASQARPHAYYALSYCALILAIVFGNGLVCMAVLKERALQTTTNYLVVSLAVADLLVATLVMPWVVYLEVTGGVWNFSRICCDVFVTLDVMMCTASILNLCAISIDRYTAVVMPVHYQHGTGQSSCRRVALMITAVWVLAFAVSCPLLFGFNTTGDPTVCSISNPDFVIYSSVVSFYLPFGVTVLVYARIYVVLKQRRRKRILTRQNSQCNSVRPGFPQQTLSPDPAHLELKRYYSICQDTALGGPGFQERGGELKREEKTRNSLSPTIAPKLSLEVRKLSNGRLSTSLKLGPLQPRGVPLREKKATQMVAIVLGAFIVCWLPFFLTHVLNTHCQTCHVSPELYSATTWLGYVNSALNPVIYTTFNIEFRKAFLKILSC
Description: Affinity for the Human Dopamine receptor D3 was determined using membranes from CHO cells labeled with [3H]spiperone

D(2) dopamine receptor [3] = target: D(2) dopamine receptor (Homo sapiens, UniProt P14416); experiment: biochemical
D(2) dopamine receptor (Homo sapiens, UniProt P14416), sequence (P14416 whole entry): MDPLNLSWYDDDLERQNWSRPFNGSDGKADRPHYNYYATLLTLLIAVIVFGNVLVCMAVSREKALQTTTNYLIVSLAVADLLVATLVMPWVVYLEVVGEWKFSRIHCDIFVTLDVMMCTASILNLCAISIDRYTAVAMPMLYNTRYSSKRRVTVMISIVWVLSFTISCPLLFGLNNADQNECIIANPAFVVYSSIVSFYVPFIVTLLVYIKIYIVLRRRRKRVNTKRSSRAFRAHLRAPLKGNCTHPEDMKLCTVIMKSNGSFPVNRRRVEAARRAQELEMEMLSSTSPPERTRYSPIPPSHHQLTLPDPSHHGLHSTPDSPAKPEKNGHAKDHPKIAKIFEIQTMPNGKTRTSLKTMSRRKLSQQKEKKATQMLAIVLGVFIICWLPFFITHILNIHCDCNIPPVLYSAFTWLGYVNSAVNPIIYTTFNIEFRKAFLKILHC
Description: Affinity for the Dopamine receptor D2S was determined using membranes from CHO cells labeled with [3H]spiperone

[4] = target: D(2) dopamine receptor (Rattus norvegicus) (UniProt P61169); experiment: Ratio D2 partial agonist, Ki(D2 Low)/Ki(D2 High), to compare a compounds estimated intrinsic activity.
D(2) dopamine receptor (Rattus norvegicus), sequence (P61169 whole entry, looked up): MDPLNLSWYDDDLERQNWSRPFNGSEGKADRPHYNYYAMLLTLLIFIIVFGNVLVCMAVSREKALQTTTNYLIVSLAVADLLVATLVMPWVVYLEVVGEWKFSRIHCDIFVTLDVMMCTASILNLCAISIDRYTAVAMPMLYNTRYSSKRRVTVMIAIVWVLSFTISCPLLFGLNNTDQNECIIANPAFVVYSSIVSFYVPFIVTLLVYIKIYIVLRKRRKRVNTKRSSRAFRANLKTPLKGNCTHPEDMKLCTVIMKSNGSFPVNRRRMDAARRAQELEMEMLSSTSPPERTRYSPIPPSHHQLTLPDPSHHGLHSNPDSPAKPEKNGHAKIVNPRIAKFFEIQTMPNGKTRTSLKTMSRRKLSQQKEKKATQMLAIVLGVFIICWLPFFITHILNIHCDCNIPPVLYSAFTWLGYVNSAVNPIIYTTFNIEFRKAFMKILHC

T1 sequence (P61169 whole entry): as the sequence (P61169 whole entry, looked up) above

Row | SMILES | Ki (D(2) dopamine receptor [1]) | Ki (D(2) dopamine receptor [2]) | Ki (D(4) dopamine receptor) | Ki (D(3) dopamine receptor) | Ki (D(2) dopamine receptor [3]) | Ratio [4]
1 | FC(F)(F)c1nc2ccc3c(c2[nH]1)OC(CNCc1ccccc1)CC3 (racemic) | 5.75 nM | 65.1 nM | 37 nM | 263 nM | 132 nM | –
2 | Oc1nc2c3c(ccc2[nH]1)CCC(CNCc1ccccc1)O3 (racemic) | – | – | – | – | – | 50
3 | Oc1nc2c3c(ccc2[nH]1)CC[C@H](CNCc1ccccc1)O3 | – | – | – | – | – | 69
4 | FC(F)(F)c1nc2c3c(ccc2[nH]1)CCC(CNCc1ccccc1)O3 (racemic) | – | – | – | – | – | 11
5 | O=C1Cc2c(ccc3c2O[C@@H](CNCc2ccccc2)CC3)N1 | – | – | 359 nM | 2.4 nM | 9.3 nM | 42
6 | O=c1[nH]c2ccc3c(c2[nH]1)OC(CNCc1ccccc1)CC3 (racemic) | 0.14 nM | 7.01 nM | 10 nM | 1 nM | 5 nM | –
7 | O=c1[nH]c2ccc3c(c2[nH]1)O[C@@H](CNCc1ccccc1)CC3 | 0.07 nM | 4.81 nM | 7 nM | 0.4 nM | 3 nM | –
8 | c1ccc(CNC[C@H]2CCc3ccc4[nH]ccc4c3O2)cc1 | – | – | 2170 nM | 34 nM | 107 nM | 24
9 | Oc1nc2c3c(ccc2[nH]1)CC[C@@H](CNCc1ccccc1)O3 | – | – | – | – | – | 12
10 | O=c1[nH]c2ccc3c(c2[nH]1)O[C@H](CNCc1ccccc1)CC3 | 5.45 nM | 67.5 nM | 313 nM | 81 nM | 67 nM | –
